Results taken from article PMC12822916 (Cell reports, 2025).

Target: eIF3e (Homo sapiens, UniProt P60228)
Test: isothermal dose-response fingerprint CETSA, western blot
Format: biochemical
Conditions: MCF7-SIX1 lysate, 10 min at room temperature with compound, heated at 53 °C for 3 min; pH 7.5 Tris, 100 mM NaCl, 1 mM DTT

eIF3e, sequence (P60228 2-445): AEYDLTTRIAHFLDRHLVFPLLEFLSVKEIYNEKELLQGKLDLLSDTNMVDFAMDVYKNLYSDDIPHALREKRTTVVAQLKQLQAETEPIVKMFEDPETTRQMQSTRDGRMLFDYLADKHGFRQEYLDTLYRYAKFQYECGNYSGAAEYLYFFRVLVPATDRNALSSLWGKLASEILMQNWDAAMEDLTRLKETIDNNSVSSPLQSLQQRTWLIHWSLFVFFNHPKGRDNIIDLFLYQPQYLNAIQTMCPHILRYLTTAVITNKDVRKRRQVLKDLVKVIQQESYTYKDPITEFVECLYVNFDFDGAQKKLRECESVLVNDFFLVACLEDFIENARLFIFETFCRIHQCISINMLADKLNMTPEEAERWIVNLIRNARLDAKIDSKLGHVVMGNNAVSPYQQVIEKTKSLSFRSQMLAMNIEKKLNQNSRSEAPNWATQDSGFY

EC50: 13.6 µM
SMILES: COc1ccc(NC(=O)c2cccc(-n3cccc3)c2)cc1S(=O)(=O)N1CCOCC1 [compound 8430, NCGC00378430]
